Results as given in patent US12545890B2, “Compositions and methods for derivation of trophoblast stem cells” (North Carolina State University, priority 2019, dated 2026).

Assays:
[1] = tested on: H1 and H9 hESCs; assay: 6-day differentiation of hESCs to CTB-like cells in chemically defined medium, marker expression by qPCR and immunofluorescence; conditions: for immunofluorescence expression of trophoblast/CTB markers in CTB-like cells: day 6, S1P or replacing agonist with BMP4 and SB431542 in E7 medium
[2] = tested on: H1 and H9 hESCs; assay: differentiation of day-6 CTB-like cells to STB, analysed at day 14; conditions: for formation of multinucleate STB expressing STB markers: agonist present during initial 6-day treatment, 14-day treatment; for formation of large multinucleated STB, compared among S1PR agonists: compared to the S1PR1 agonist
Excerpt: (§1) Differentiation of hPSCs (6 days protocol). […] The medium was replaced every day.

[3] = tested on: H1 and H9 hESCs; assay: differentiation of day-6 CTB-like cells to EVTs, analysed at day 12; conditions: for formation of EVTs, expression of EVT markers HLA-G and VE-Cadherin: agonist present during initial 6-day treatment, 12-day treatment; for formation of mesenchymal EVTs, compared among S1PR agonists: relative to the S1PR2 agonist
Excerpt: as §1

[4] = tested on: H9 and H1 hESCs; assay: 3-day differentiation of hESCs, quantitative image analysis of nuclear CDX2; format: cell-based, human; conditions: day 3; BMP4 and SB431542 in E7 medium with S1PR3 agonist
Procedure: Differentiation of hPSCs to hPSC-TS^CDX2 and hPSC-TS cells. […] The medium was replaced every day. […] Alternatively, hPSCs after 2 or 3 days of differentiation were directly passaged into TSCM.
Immunofluorescence analysis.
Confocal image analysis. Image analysis was conducted using an image processing algorithm created in MATLAB. First, the DAPI stain was isolated, binarized, and processed to accurately represent the number of cells in each image. The primary-antibody stain of interest was isolated and processed in the same manner. Only primary-antibody pixels that overlap DAPI pixels were considered for analysis, and the average intensities of those pixels were measured and correlated to the nearest nuclei. This was performed for one control image and multiple experimental images. Each cell in the experimental images was considered positively stained if the average intensity of that cell was greater than the average intensity of all of the cells in the control image. Statistical analysis was done using a two-tailed t-test evaluating percent positive cells from different treatment periods.

[5] = day 6, qualitative immunofluorescence

Row | Compound | intensity of CDX2 and P63 expression, compared among S1PR agonists [1, 5] | nuclear P63 expression, compared among S1PR agonists [1, 5] | immunofluorescence expression of trophoblast/CTB markers in CTB-like cells [1] | formation of multinucleate STB expressing STB markers [2] | formation of EVTs, expression of EVT markers HLA-G and VE-Cadherin [3] | formation of mesenchymal EVTs, compared among S1PR agonists [3] | formation of large multinucleated STB, compared among S1PR agonists [2] | intensity of CDX2 and P63 expression, compared among S1PR agonists ([1]; day 6, qualitative immunofluorescence, listed as S1PR3 agonist) | fraction of CDX2+ cells [4] | gene expression of CTB markers CDX2 and ELF5 ([1]; H1 and H9 hESCs, 6 days in E7 medium supplemented with S1P, with BMP4 and SB431542, compared to hESCs) | gene expression of neural and mesodermal markers ([1]; H1 and H9 hESCs, after 6 days in E7 medium supplemented with S1P, with BMP4 and SB431542) | gene expression after 6 days of differentiation upon removal of S1P ([1]; H9 and H1 hESCs, compared to 6-day treatment in the presence of S1P) | differentiation to STB in the absence of S1P ([2]; S1P removed during initial 6-day treatment, syncytin and KRT7 staining) | formation of EVTs upon removal of S1P ([3]; S1P removed during hESC differentiation to CTB-like cells, identical differentiation conditions)
1 | CCOc1ccc(-c2nc(-c3cccc4c3CCC4NCCO)no2)cc1OCC.Cl (stereo not drawn) [CYM5442 hydrochloride] | higher | strongest | Expression of CDX2, GATA3, P63, and TEAD4 was observed | formation of multinucleate STB expressing KRT7 and hCG | expression of the EVT markers HLA-G and VE-Cadherin | enhanced formation of mesenchymal EVTs | – | – | – | – | – | – | – | –
2 | Cc1cc(C(=O)Cn2cc(C#N)ccc2=O)c(C)n1Cc1ccccc1 [CYM5520] | lower expression of CDX2, strong cytoplasmic expression of P63, and high heterogeneity in staining | – | Expression of CDX2, GATA3, P63, and TEAD4 was observed | formation of multinucleate STB expressing KRT7 and hCG | expression of the EVT markers HLA-G and VE-Cadherin | – | more pronounced | – | – | – | – | – | – | –
3 | O=C(c1cc(C2CC2)on1)N(C1CCCCC1)C1CCCCC1 [CYM5541] | higher | – | Expression of CDX2, GATA3, P63, and TEAD4 was observed | formation of multinucleate STB expressing KRT7 and hCG | expression of the EVT markers HLA-G and VE-Cadherin | enhanced formation of mesenchymal EVTs | more pronounced | high CDX2 expression | nearly all cells are CDX2^+ | – | – | – | – | –
4 | CCCCCCCCCCCCC/C=C/[C@@H](O)[C@@H](N)COP(=O)(O)O [S1P, sphingosine-1 phosphate] | – | – | confirmed expression of the pan-trophoblast marker KRT7, and CTB markers P63 and GATA3 | formation of KRT7^+ multinucleate cells expressing the STB markers hCG and syncytin | expression of KRT7 and the EVT markers VE-Cadherin and HLA-G | – | – | – | – | upregulation of the CTB markers CDX2 and ELF5 was observed | no significant changes in markers associated with neural or mesodermal differentiation | downregulation of the CTB marker CDX2 and upregulation of transcripts of neural and mesoderm markers | did not occur | abolished formation of EVTs
5 | CCCCCCCCCCCCCCC[C@@H](O)[C@@H](N)COP(=O)(O)O [dhS1P, D-erythro-dihydrospingosine-1-phosphate] | – | – | CTB-like cells showed expression of CDX2, GATA3, P63, and TEAD4 | STB expressing KRT7 and hCG | EVT expressing HLA-G and VE-Cadherin were obtained | – | – | – | – | – | – | – | – | –
